Patent US20110257206A1, “Combinations of Therapeutic Agents for Treating Cancer” (priority 2006, published 2011)

Columns and labels:
SKMEL28 = assay: Combination dose-matrix cell viability assay (CellTiter-Blue / alamar blue), synergy versus Loewe additivity, SKMEL-28; type: cell-based; conditions: combination with Epothilone B; SKMEL28 cells; 72 hours; volume between measured and Loewe additive response surfaces; positive = synergistic
Description: The inhibition ranges from 0% at the untreated level to 100% when T=0.
This effectively calculates a volume between the measured and Loewe additive response surfaces, weighted towards high inhibition and corrected for varying dilution factors.

A549 = assay: Combination dose-matrix cell viability assay (CellTiter-Blue / alamar blue), synergy versus Loewe additivity, A549; type: cell-based; conditions: combination with Epothilone B; A549 cells; 72 hours; volume between measured and Loewe additive response surfaces; positive = synergistic
Procedure: The following Examples illustrate the combinations with epothilone B that show a syngeristic effect. All combinations were tested in three (3) distinct cell lines as part of this collaboration: A549, a model of non-small cell lung carcinoma; SKOV-3, a model of ovarian cancer; and SKMEL-28, a model of malignant melanoma.
Cells were cultured in T-175 flasks in complete medium (RPMI-1640, 10% FBS, 1% Penn/Strep) at 37° C. and 5% CO2. Cells were removed from the flask by brief treatment with 0.25% trypsin. Trypsin was inactivated with media and cell count was adjusted appropriately. Cells were then seeded into 384-well microtiter plates (35 μL) at 1500 (A549) or 3,000 (SKOV-3, SKMEL-28) cells/well using a multi-drop 16-24 hours prior to compound addition for general screening. […]
A solution of 5% CellTiter-Blue (Promega) viability dye in complete medium was dispensed to assay plates using a multi-drop or 384-well pipettor. […] Plates were allowed to cool to room temperature for one hour before reading fluorescence intensity at 590 nm after excitation at 540 nm in a Wallac Victor-V plate reader.
The measure of effect was the inhibition of cell viability using an alamar blue viability assay relative to the untreated level (vehicle alone). For untreated and treated levels U and T, a fractional inhibition I=1−T/U was calculated. […]

Molecule	Synergy Score (SKMEL28)	Synergy Score (A549)
Nc1nc(Cl)nc2c1ncn2C1CC(O)C(CO)O1 (stereo not drawn) [5-(6-amino-2-chloro-purin-9-yl)-2-(hydroxymethyl)oxolan-3-ol]	0.999	
O=C1C(SCCO)=C(SCCO)C(=O)c2ccccc21 [1,4-Naphthalenedione, 2,3-bis[(2-hydroxyethyl)thio]-(9CI)]		1.233
Butanedinitrile, bis[amino[(2-aminophenyl)thio]methylene]- (9CI)		1.199
